Laboratory results published in patent US6946463B2, “1,2,5,10-tetrahydropyridazino[4,5-b]quinoline-1,10-diones and their use for the treatment of pain” (Astrazeneca AB, priority 2000, dated 2005).
Where a name gives a salt, the structure may show the parent alone. Read-outs that look alike come from different tables or passages of the source.

Target: T1, NMDA receptor glycine site (Rattus norvegicus, UniProt P35439)
T1 construct: fresh brain tissue including cerebral cortex and hippocampus from male Sprague Dawley rats was homogenized; tissue Analytical Biological Services Inc; host or cells: rat brain membranes (cerebral cortex and hippocampus, male Sprague Dawley rats)
Test: Test A: Inhibition of binding of [3H]-MDL105,519 to brain membranes
Source text: Test A: Inhibition of Binding of [^3H]-MDL105,519:
Binding of compounds to the NMDA receptor glycine site may be assessed by measuring the ability of test compounds to inhibit the binding of tritiated MDL105,519 to brain membranes bearing the receptor.
Briefly, fresh brain tissue including cerebral cortex and hippocampus from male Sprague Dawley rats was homogenized in 0.32 M sucrose and centrifuged at low speed to separate cellular membranes from other cellular components. The membranes were then washed 3 times using deionized water, followed by treatment with 0.04% Triton X-100. Finally, membranes were washed six times in 50 mM Tris citrate buffer, pH 7.4, and frozen at −80° C. until use.
[^3H]MDL105,519 (72 Ci/mmol) was purchased from Amersham. Cold MDL105,519 was purchased from Sigma/RBI. […] On the day of the experiment, brain membranes were thawed at room temperature and suspended in 50 mM tris acetate buffer, pH 7.4 (“TAB”). Seventy-five micro grams per milliliter protein (by using the BioRad dye) were used for competition binding. The experiments were carried out using 96-well plates. […] Non specific binding was determined by using 100 μM of unlabeled MDL105,519. […] After incubation, unbound [^3H]ML105,519 was removed by filtration onto GF/B Unifilter plates using a Packard harvester. Filters were washed four times with ice cold TAB (total of 1.2 mL buffer). The plates were dried overnight at room temperature and bound radioactivity was measured on a Packard TopCount after the addition of 45 μL per well of the MICROSCINT O.
Human Brain Membranes: Human brain membranes were obtained from Analytical Biological Services Inc., and assays were performed as described for rat membranes.
Data analysis: Data was analyzed using a Microsoft Excel spreadsheet and GraphPad Prizm software and potency of compounds is expressed as the Ki (nM).

[1] = inhibition of [3H]-MDL105,519 binding to brain membranes, 1.2 nM radioligand, 30 minutes at room temperature

SMILES	Ki	further results
O=c1c2ccc(Cl)cc2[nH]c2c(O)nn(C(c3ccccn3)C3CC3)c(=O)c12 (racemic) [Ex. 1, (+/−)-7-Chloro-4-hydroxy-2-(1-cyclopropyl-1-pyrid-2-yl)methyl-1,2,5,10-tetrahydropyridazino[4,5-b]quinoline-1,10-dione]	–	Ki [1]: 0.996 µM
O=c1[nH]n(C(c2ccccn2)C2CCCC2)c(=O)c2c(O)c3ccc(Cl)cc3nc12 (racemic) [Ex. 3, (+/−)-7-Chloro-4-hydroxy-2-(1-cyclopentyl-1-pyrid-2-yl)methyl-1,2,5,10-tetrahydropyridazino[4,5-b]quinoline-1,10-dione hydrochloride]	–	Ki (inhibition of [3H]-MDL105,519 binding to brain membranes, bound in μM): > 10 µM
O=c1c2ccc(Cl)cc2[nH]c2c(O)nn(C(c3ccccc3)c3ccncc3)c(=O)c12 (racemic) [Ex. 4, (+/−)-7-Chloro-4-hydroxy-2-(1-phenyl-1-pyrid-4-yl)methyl-1,2,5,10-tetrahydropyridazino[4,5-b]quinoline-1,10-dione]	–	Ki [1]: 3.69 µM
Cc1cnccc1C(C)n1nc(O)c2[nH]c3cc(Cl)ccc3c(=O)c2c1=O (racemic) [Ex. 5, (+/−)-7-Chloro-4-hydroxy-2-(1-(3-methylpyrid-4-yl))ethyl-1,2,5,10-tetrahydropyridazino[4,5-b]quinoline-1,10-dione]	0.907 µM	–
Cc1cccnc1C(C)n1nc(O)c2[nH]c3cc(Cl)ccc3c(=O)c2c1=O (racemic) [Ex. 7, (+/−)-7-Chloro-4-hydroxy-2-(1-methyl(3-methylpyrid-2-yl)methyl)-1,2,5,10-tetrahydropydridazino[4,5-b]quinoline-1,10-dione methanesulfonate]	1.78 µM	–
Cc1cc(C(C)n2nc(O)c3[nH]c4cc(Cl)ccc4c(=O)c3c2=O)ccn1 (racemic) [Ex. 8, (+/−)-7-Chloro-4-hydroxy-2-(1-methyl(2-methylpyrid-4-yl)methyl)-1,2,5,10-tetrahydropyridazino[4,5-b]quinoline-1,10-dione methanesulfonate]	0.228 µM	–
CC(c1cccc[n+]1[O-])n1nc(O)c2[nH]c3cc(Cl)ccc3c(=O)c2c1=O (racemic) [Ex. 10, (+/−)-7-Chloro-4-hydroxy-2-(1-pyrid-2-yl-N-oxide)ethyl-1,2,5,10-tetrahydropyridazino[4,5-b]quinoline-1,10-dione]	2.57 µM	–
CC(c1cc[n+]([O-])cc1)n1[nH]c(=O)c2nc3cc(Cl)ccc3c(O)c2c1=O (racemic) [Ex. 11, (+/−)-7-Chloro-4-hydroxy-2-(1-pyrid-4-yl-N-oxide)ethyl-1,2,5,10-tetrahydrpyridazino[4,5-b]quinoline-1,10-dione]	2.42 µM	–
